Results as given in ChEMBL document CHEMBL4680094, “Insights of a Lead Optimization Study and Biological Evaluation of Novel 4-Hydroxytamoxifen Analogs as Estrogen-Related Receptor γ (ERRγ) Inverse Agonists” (J Med Chem, 2016).
Calls of active or inactive are those of the source. The rule behind the calls is not given here.

Experiments:
[1] = Clearance in Sprague-Dawley rat at 10 mg/kg, po or 1 mg/kg, iv measured upto 8 hrs by LC-MS/MS analysis; format: ADME, organism-based; conditions: in vivo
[2] = Metabolic stability in rat liver microsome assessed as parent compound remaining at 1 uM incubated for 30 mins in presence of NADPH generating system by LC-MS/MS analysis; format: ADME; conditions: liver microsomes, read-out: Stabilty
[3] = target: Voltage-gated inwardly rectifying potassium channel KCNH2 (Homo sapiens, UniProt Q12809); test: (§1) Inhibition of human ERG measured after 4 hrs by fluorescence polarization assay
Chain of Voltage-gated inwardly rectifying potassium channel KCNH2 (Q12809 whole entry): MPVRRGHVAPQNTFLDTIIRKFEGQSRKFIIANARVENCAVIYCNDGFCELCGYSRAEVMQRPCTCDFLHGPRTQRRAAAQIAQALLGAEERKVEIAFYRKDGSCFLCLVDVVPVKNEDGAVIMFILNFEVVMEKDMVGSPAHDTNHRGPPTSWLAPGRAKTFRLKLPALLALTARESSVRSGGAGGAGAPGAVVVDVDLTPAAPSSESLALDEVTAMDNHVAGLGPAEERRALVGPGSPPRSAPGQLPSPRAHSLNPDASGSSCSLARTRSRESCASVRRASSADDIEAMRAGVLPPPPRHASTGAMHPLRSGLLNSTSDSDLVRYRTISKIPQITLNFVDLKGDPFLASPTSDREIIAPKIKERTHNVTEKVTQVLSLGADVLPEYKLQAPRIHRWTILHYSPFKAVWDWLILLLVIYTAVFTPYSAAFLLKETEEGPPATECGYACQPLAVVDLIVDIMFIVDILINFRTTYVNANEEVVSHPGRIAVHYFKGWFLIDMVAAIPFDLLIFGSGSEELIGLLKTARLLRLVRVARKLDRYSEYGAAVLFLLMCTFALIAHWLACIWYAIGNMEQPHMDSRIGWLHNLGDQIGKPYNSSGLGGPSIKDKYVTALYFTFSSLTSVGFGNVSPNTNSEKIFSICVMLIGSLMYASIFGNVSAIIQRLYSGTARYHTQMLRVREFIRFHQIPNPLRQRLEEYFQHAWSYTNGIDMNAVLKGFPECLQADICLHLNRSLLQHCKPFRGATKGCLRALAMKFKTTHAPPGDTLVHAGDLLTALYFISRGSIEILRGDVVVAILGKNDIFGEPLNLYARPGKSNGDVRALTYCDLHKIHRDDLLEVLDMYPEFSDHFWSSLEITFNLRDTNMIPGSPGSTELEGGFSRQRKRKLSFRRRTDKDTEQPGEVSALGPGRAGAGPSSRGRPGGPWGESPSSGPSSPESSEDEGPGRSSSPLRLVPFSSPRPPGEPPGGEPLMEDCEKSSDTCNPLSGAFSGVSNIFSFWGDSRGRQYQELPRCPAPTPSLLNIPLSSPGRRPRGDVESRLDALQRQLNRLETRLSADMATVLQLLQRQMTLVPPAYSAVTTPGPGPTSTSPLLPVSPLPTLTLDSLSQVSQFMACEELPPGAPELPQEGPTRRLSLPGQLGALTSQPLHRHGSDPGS

[4] = target: CYP3A4 (Homo sapiens, UniProt P08684); test: Inhibition of CYP3A4 in human liver microsomes assessed as reduction in midazolam 1-hydroxylase activity at 10 uM preincubated for 5 mins followed by addition of NADPH-regenerating system and measured after 15 mins by LC-MS/MS analysis relative to control; format: ADME; conditions: probe midazolam (1-hydroxylase activity), time 20 min
Chain of CYP3A4 (P08684 whole entry): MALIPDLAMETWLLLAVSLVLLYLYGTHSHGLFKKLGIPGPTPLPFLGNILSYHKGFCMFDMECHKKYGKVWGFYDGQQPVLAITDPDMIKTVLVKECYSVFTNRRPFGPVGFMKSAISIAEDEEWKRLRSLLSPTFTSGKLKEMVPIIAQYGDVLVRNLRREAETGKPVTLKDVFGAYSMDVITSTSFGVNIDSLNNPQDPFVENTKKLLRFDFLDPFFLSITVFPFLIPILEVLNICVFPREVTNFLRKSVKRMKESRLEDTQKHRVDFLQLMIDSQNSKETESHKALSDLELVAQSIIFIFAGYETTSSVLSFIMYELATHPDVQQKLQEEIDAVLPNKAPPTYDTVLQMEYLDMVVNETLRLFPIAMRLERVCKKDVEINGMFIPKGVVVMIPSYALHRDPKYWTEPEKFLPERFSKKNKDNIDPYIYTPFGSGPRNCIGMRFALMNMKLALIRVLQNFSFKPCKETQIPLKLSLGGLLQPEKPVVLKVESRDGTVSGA

[5] = target: T1, CYP1A2 (Homo sapiens, UniProt P05177); test: Inhibition of CYP1A2 in human liver microsomes assessed as reduction in phenacetin O-deethylase activity at 10 uM preincubated for 5 mins followed by addition of NADPH-regenerating system and measured after 15 mins by LC-MS/MS analysis relative to control; format: ADME; conditions: probe phenacetin (O-deethylase activity), time 20 min
T1 sequence (P05177 whole entry): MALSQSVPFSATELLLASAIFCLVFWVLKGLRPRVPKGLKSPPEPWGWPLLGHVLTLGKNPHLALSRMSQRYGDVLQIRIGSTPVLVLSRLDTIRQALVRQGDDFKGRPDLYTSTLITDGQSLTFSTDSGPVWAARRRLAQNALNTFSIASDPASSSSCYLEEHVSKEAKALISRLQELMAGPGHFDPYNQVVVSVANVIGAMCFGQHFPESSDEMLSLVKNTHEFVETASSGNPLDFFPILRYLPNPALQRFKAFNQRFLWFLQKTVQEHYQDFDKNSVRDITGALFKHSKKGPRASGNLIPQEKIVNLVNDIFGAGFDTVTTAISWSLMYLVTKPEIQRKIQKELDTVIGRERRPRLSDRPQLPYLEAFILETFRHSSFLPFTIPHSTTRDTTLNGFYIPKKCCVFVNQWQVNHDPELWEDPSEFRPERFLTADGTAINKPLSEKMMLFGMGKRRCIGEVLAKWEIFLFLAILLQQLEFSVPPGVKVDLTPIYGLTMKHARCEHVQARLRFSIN

[6] = target: CYP2D6 (Homo sapiens, UniProt P10635); test: Inhibition of CYP2D6 in human liver microsomes assessed as reduction in dextromethorphan O-demethylase activity at 10 uM preincubated for 5 mins followed by addition of NADPH-regenerating system and measured after 15 mins by LC-MS/MS analysis relative to control; format: ADME; conditions: probe dextromethorphan (O-demethylase activity), time 20 min
Chain of CYP2D6 (P10635 whole entry): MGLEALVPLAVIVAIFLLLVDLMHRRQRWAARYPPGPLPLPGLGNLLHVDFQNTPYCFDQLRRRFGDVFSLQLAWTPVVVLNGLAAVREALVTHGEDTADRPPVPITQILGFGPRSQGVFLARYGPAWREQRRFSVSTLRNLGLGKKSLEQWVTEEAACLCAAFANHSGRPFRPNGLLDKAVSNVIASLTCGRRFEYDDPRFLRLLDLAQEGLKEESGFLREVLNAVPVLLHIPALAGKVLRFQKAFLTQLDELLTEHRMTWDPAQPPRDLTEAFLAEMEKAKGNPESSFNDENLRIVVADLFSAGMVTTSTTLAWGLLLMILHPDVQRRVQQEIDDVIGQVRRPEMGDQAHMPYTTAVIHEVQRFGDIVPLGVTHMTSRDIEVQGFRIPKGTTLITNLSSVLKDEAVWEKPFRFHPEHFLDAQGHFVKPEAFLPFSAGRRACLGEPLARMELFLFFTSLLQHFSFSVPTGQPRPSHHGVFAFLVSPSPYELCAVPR

[7] = tested on: CAL-62; test: Antiproliferative activity against human CAL-62 cells at 10 uM assessed as reduction in cell proliferation; format: functional, cell-based
[8] = Metabolic stability in human liver microsome assessed as parent compound remaining at 1 uM incubated for 30 mins in presence of NADPH generating system by LC-MS/MS analysis; format: ADME; conditions: liver microsomes, read-out: Stabilty
[9] = Oral bioavailability in Sprague-Dawley rat at 10 mg/kg, administered via gavage measured upto 8 hrs by LC-MS/MS analysis; format: ADME, organism-based; conditions: in vivo
[10] = tested on: CAL-62; test: Antiproliferative activity against human CAL-62 cells at 20 uM assessed as reduction in cell proliferation; format: functional, cell-based
[11] = Half-life in Sprague-Dawley rat at 10 mg/kg, po or 1 mg/kg, iv measured upto 8 hrs by LC-MS/MS analysis; format: ADME, organism-based; conditions: in vivo
[12] = Volume of distribution at steady state in Sprague-Dawley rat at 10 mg/kg, po or 1 mg/kg, iv measured upto 8 hrs by LC-MS/MS analysis; format: ADME, organism-based; conditions: in vivo, read-out: Vdss
[13] = target: CYP2C9 (Homo sapiens, UniProt P11712); test: Inhibition of CYP2C9 in human liver microsomes assessed as reduction in tolbutamide 4-hydroxylase activity at 10 uM preincubated for 5 mins followed by addition of NADPH-regenerating system and measured after 15 mins by LC-MS/MS analysis relative to control; format: ADME; conditions: probe tolbutamide (4-hydroxylase activity), time 20 min
Chain of CYP2C9 (P11712 whole entry): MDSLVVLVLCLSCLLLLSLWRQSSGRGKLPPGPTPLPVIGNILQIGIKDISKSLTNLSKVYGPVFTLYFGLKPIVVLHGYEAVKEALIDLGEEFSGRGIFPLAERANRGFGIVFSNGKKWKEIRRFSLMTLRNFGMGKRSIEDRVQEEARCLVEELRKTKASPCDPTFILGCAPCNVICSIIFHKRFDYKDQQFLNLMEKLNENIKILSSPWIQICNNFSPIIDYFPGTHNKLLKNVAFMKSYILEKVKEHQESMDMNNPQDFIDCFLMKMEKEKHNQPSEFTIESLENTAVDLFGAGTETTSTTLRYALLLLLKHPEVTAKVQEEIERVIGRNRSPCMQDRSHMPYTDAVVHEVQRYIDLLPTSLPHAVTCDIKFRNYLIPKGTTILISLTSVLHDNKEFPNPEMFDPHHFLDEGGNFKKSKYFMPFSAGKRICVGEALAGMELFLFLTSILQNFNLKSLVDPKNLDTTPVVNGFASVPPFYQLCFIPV

[14] = Effective permeability of compound at 10 uM in PBS buffer at pH 7.4 after 5 hrs by LC-MS/MS analysis based PAMPA method; format: ADME; conditions: read-out: Peff
[15] = target: CYP2C19 (Homo sapiens, UniProt P33261); test: Inhibition of CYP2C19 in human liver microsomes assessed as reduction in S-mephenytoin 4-hydroxylase activity at 10 uM preincubated for 5 mins followed by addition of NADPH-regenerating system and measured after 15 mins by LC-MS/MS analysis relative to control; format: ADME; conditions: probe S-mephenytoin (4-hydroxylase activity), time 20 min
Chain of CYP2C19 (P33261 whole entry, the tested form may be a part): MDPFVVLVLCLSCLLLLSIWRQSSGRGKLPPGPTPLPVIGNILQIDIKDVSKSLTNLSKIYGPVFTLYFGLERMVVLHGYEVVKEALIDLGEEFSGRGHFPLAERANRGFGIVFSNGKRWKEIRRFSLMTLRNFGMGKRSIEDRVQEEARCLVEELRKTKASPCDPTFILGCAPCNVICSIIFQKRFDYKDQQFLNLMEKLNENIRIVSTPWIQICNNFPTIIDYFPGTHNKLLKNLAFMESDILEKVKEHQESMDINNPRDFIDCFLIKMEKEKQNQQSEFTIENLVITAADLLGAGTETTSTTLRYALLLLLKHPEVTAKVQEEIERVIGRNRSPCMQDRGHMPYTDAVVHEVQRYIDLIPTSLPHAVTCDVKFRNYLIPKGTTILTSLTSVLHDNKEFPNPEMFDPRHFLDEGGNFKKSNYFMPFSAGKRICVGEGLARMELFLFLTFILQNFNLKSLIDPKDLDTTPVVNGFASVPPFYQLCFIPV

[16] = target: T2, Estrogen receptor (Homo sapiens, UniProt P03372); test: Binding affinity to GST-tagged ERalpha LBD (unknown origin) using fluorescein PGC1alpha as coactivator incubated for 1 hr by LanthaScreen TR-FRET co-regulator assay
T2 sequence (P03372 whole entry): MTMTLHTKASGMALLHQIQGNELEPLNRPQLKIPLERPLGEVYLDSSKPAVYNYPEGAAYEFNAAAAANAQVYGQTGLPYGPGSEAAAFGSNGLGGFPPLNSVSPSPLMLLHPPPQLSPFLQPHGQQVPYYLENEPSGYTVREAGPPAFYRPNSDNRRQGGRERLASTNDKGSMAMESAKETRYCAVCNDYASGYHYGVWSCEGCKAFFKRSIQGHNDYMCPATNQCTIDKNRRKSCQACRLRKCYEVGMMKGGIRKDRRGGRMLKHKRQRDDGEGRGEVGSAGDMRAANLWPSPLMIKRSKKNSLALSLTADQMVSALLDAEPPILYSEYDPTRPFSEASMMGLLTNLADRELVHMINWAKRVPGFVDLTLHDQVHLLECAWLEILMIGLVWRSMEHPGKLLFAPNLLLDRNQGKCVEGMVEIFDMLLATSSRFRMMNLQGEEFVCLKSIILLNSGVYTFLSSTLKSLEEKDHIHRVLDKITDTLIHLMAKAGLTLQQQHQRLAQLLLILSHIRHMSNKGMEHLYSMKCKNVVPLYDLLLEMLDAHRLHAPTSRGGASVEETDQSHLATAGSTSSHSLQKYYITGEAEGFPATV

[17] = target: T3, Steroid hormone receptor ERR2 (Homo sapiens, UniProt O95718); test: Binding affinity to GST-tagged ERRbeta LBD (unknown origin) using fluorescein PGC1alpha as coactivator incubated for 1 hr by LanthaScreen TR-FRET co-regulator assay
T3 sequence (O95718 whole entry): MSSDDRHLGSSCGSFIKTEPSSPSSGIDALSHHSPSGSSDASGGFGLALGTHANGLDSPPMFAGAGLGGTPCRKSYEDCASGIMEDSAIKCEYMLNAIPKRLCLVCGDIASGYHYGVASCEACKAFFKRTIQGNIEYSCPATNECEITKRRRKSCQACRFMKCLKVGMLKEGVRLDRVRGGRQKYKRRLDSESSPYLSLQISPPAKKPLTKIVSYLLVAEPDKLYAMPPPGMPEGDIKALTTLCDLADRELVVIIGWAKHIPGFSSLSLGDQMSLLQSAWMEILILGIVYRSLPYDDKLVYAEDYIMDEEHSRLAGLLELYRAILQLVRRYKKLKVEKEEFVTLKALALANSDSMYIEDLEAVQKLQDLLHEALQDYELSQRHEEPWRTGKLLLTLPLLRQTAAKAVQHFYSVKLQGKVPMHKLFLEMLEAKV

[18] = target: T4, Estrogen-related receptor gamma (Homo sapiens, UniProt P62508)
T4 sequence (P62508 whole entry): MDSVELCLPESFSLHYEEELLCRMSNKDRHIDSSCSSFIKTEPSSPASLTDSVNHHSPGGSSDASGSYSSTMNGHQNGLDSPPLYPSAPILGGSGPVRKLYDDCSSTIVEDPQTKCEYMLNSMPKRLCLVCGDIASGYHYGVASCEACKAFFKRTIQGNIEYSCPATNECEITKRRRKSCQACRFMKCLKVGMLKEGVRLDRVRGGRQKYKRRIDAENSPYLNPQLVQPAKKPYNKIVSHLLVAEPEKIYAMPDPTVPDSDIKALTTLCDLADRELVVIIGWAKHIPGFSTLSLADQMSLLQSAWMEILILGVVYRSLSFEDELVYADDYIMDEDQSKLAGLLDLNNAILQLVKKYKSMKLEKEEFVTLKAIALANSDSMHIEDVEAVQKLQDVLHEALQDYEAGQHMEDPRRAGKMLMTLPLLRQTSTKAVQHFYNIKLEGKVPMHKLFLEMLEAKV

[19] = target: T5, Steroid hormone receptor ERR1 (Homo sapiens, UniProt P11474); test: Binding affinity to GST-tagged ERRalpha LBD (unknown origin) using fluorescein PGC1alpha as coactivator incubated for 1 hr by LanthaScreen TR-FRET co-regulator assay
T5 sequence (P11474 whole entry): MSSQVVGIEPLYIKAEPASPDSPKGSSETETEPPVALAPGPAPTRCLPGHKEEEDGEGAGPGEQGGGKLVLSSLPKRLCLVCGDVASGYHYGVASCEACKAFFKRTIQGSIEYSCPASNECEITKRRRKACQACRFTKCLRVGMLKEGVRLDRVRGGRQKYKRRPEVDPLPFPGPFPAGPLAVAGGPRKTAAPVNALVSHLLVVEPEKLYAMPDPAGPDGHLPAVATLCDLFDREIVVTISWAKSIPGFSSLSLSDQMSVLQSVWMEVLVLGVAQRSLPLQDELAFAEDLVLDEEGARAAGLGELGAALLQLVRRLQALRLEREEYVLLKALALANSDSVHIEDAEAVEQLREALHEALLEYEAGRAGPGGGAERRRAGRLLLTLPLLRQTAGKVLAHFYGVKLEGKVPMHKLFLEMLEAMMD

[20] = target: hERG (KCNH2) (Homo sapiens, UniProt Q12809); test: as §1; conditions: human
Chain of hERG (KCNH2) (Q12809 whole entry): as the sequence (Q12809 whole entry) above

[21] = tested on: CAL-62; test: Potentiation of radioiodine therapy-mediated cytotoxicity against human CAL-62 cells assessed as colony forming units level in presence of [131I] at 20 uM preincubated for 24 hrs followed by [131I] addition and measured after 6 hrs by crystal violet staining based assay (reference value: 97.5 +/- 2%); format: functional; conditions: time 30 hrs
[22] = tested on: CAL-62; test: Anticlonogenic activity against human CAL-62 cells assessed as colony forming units level in absence of [131I] at 20 uM incubated for 24 hrs by crystal violet staining based assay; format: ADME, cell-based; conditions: cal-62, 24 h

| Compound | clearance [1] [mL/min/kg] | remaining at 0.5 h, 1 µM [2] [%] | IC50 [3] [µM] | inhibition at 0.25 h, 10 µM [4] [%] | inhibition at 0.25 h, 10 µM [5] [%] | inhibition at 0.25 h, 10 µM [6] [%] | remaining at 0.5 h, 1 µM [8] [%] | inhibition at 0.25 h, 10 µM [13] [%] | Papp at 5 h, 10 µM [14] [×10⁻⁶ cm/s] | inhibition at 0.25 h, 10 µM [15] [%] | IC50 [16] [µM] | IC50 [17] [µM] | IC50 [18] [µM] | IC50 [19] [µM] | other results |
| --- | --- | --- | --- | --- | --- | --- | --- | --- | --- | --- | --- | --- | --- | --- | --- |
| CN1CCC[C@H]1COc1ccc(/C(=C(/CCCO)c2ccccc2)c2ccc(Br)cc2)cc1.Cl | 74.4 | 66.2 | 4.7 | 55 | 9.6 | 35.6 | 61.2 | 37.3 | 0.93 | 30.5 | – | – | – | – | Activity [7]: inactive; bioavailability [9]: 38.2%; Activity [10]: Active; half-life [11]: 3.4 h; Vd [12]: 16.1 L/kg |
| CN1CCCC1CCOc1ccc(/C(=C(/CCCO)c2ccccc2)c2ccc(Br)cc2)cc1.Cl (stereo unspecified) | – | 59.9 | 1.7 | 9.8 | 0 | 0 | 67.3 | 3 | 0.21 | 10.6 | 2.97 | 8.88 | 0.296 | 5.14 | – |
| CN(C)CCOc1ccc(/C(=C(/CCCO)c2ccccc2)c2ccc(O)cc2)cc1 | 45.6 | – | – | 17 | 16.4 | 17.7 | – | 27.1 | 0.23 | 21.8 | – | – | – | – | – |
| CN1CCCC1CCOc1ccc(/C(=C(/CCCO)c2ccccc2)c2ccc(O)cc2)cc1.Cl (stereo unspecified) | – | 22.5 | – | 16.3 | 2.1 | 18.3 | 37.3 | 24.6 | 0.01 | 18.2 | – | 6.01 | 0.02 | > 10 | – |
| CN1CCC[C@@H]1COc1ccc(/C(=C(/CCCO)c2ccccc2)c2ccc(O)cc2)cc1.Cl | – | 27.7 | – | 20.6 | 1.9 | 6.4 | 29 | 13.3 | 0.7 | 17.4 | 3.76 | > 10 | – | > 10 | IC50 at 4 h [20]: > 30 µM |
| CN1CCC[C@H]1COc1ccc(/C(=C(/CCCO)c2ccccc2)c2ccc(O)cc2)cc1.Cl | – | 30.3 | – | 24.6 | 0 | 9.3 | 24.8 | 37.2 | 2.11 | 16.8 | 1.06 | 3.99 | – | > 10 | Activity [21]: 67.4%; Activity [22]: 93% |
